Results published in PMC9168620, “Genetic validation of Aspergillus fumigatus phosphoglucomutase as a viable therapeutic target in invasive aspergillosis” (The Journal of Biological Chemistry, 2022).
Values joined by “and” are separate entries in the source; they are usually repeats but may differ in a detail not shown here. Identical values can stand only once. Like-named read-outs stand apart in the source and are kept apart here.

How the values were obtained:
AfPGMC353∗ = target: T1, AfPGMC353∗ (Aspergillus fumigatus, UniProt Q4WY53, C131S/C242S/C364S); assay: G6PDH coupled assay for PGM, AfPGMC353∗ variant (C353 the sole cysteine); type: biochemical; settings: no preincubation; for IC50: IC50 AfPGMC353, AfPGMC353∗ (all other cysteines mutated to serine) 5 nM
T1 construct: Full length AfPGM; 6His-GST (N, cleaved yes); made in house; host or cells: E. coli BL21 (DE3) pLysS
Protocol: (§1) The reaction mixture contained MOPS–NaOH (pH 7.4; 50 mM), MgSO4 (1.5 mM), NADP^+ (1 mM), G6PDH (0.01 U) from L. mesenteroides, Glc-1P (500 μM), Glc-1,6-2P (50 μM), and enzyme (5 nM). The reaction was carried out at 25 °C for 6 min in a total volume of 100 μl. Formation of NADPH was detected in real-time (every 1.5 min), measuring fluorescence signal (excitation at 360 nm; emission at 460 nm). To measure the inhibitory activity, compounds with different concentrations (3% (v/v) DMSO) were added to the reaction system. IC50 values were calculated using the product (NADPH) concentration at 6 min with 500 μM Glc-1P.

HsPGM = target: T2, HsPGM (Homo sapiens, UniProt P36871); assay: G6PDH coupled assay for PGM, HsPGM; type: biochemical
T2 construct: Full length HsPGM; 6His-GST (N, cleaved yes); made in house; host or cells: E. coli BL21 (DE3) pLysS (same protocol as AfPGM)
T2 sequence (P36871 1-562): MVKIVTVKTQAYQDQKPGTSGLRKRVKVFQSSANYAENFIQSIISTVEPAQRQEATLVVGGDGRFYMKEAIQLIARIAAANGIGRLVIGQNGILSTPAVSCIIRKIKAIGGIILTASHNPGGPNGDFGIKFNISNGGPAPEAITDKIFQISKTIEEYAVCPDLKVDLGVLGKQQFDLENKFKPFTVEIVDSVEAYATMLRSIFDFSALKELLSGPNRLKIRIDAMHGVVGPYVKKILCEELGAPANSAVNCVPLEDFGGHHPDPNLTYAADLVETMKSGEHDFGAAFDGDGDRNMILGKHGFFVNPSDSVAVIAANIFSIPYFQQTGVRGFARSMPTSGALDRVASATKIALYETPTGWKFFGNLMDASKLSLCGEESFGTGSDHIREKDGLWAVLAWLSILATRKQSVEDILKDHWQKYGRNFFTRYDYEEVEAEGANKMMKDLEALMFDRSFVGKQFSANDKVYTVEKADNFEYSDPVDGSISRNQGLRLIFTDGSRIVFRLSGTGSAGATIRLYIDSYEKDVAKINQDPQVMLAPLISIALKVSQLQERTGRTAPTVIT
Protocol: as §1
(§2) Figure S11: Representative enzyme activity assays for PGMs. Error bars represent standard deviation of three determinations. Panel A and B show the time course of PGMs and PGM mutants in which sugar recognition glutamates are mutated to glutamine. […] Values in parentheses indicate the time at which DTT (1 mM) was added.

AfPGM = target: T3, AfPGM (Aspergillus fumigatus, UniProt Q4WY53); assay: biochemical; settings: for IC50 / IC50 AfPGM: WT AfPGM 5 nM, no preincubation, 500 μM Glc-1P
T3 construct: Full length AfPGM; 6His-GST (N, cleaved yes); made in house; host or cells: E. coli BL21 (DE3) pLysS
Protocol: as §1, §2

[1] = HsPGM 5 nM, no preincubation, > values: highest concentration at which the compound can solubilize, read-out: IC50 HsPGM

T3 sequence (Q4WY53 whole entry): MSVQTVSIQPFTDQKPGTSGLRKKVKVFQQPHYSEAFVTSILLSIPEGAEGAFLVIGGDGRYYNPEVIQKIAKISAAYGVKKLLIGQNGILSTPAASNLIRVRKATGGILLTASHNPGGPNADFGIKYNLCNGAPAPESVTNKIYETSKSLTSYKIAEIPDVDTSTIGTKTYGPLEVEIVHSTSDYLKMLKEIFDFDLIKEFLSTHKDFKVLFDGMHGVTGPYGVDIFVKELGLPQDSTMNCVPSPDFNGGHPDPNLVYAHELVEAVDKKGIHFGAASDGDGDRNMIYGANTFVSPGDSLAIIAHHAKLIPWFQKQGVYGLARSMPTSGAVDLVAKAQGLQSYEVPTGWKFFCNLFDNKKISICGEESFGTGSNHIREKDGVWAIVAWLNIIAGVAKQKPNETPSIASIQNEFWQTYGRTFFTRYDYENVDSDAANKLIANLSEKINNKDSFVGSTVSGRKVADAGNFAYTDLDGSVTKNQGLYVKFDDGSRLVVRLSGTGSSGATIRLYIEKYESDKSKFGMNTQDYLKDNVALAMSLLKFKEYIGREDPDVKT
T1 sequence (Q4WY53 whole entry C131S/C242S/C364S): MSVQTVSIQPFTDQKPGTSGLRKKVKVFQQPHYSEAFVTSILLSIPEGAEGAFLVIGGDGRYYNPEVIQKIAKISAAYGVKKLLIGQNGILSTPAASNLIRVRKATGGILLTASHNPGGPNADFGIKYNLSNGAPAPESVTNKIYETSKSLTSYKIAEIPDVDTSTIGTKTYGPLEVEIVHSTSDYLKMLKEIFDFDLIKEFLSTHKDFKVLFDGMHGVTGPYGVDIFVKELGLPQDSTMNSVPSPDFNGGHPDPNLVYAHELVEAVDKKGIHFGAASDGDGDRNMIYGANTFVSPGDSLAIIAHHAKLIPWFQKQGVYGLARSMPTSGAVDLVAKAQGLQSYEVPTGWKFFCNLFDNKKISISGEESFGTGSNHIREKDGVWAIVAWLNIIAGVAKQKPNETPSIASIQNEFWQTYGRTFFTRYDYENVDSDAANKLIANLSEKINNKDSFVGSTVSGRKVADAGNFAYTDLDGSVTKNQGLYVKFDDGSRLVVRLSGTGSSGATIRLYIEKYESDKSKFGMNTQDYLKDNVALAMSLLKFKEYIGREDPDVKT

SMILES | IC50 (AfPGMC353∗) | IC50 (HsPGM; [1]) [µM] | IC50 (AfPGM) | IC50 AfPGM (AfPGM) | also measured
O=c1ccsn1-c1cccc2ccccc12 [ISFP17, 2-(naphthalen-1-yl)isothiazol-3(2H)-one] | 16 µM | > 100 | 3.3 µM |  | 
N#Cc1cccc(-n2sccc2=O)c1 [ISFP14, 3-(3-oxoisothiazol-2(3H)-yl)benzonitrile] | 9.5 µM | > 100 | 5.7 µM |  | 
Cc1csn(-c2cccc(Cl)c2)c1=O [ISFP28, 2-(3-chlorophenyl)-4-methylisothiazol-3(2H)-one] |  |  |  | no inhibition | 
O=c1cc(-c2ccccc2)sn1-c1cccc(Cl)c1 [ISFP27, 2-(3-chlorophenyl)-5-phenylisothiazol-3(2H)-one] |  |  |  | no inhibition | 
CC(C)OC(=O)c1ccc(-n2sccc2=O)cc1 [ISFP11, isopropyl 4-(3-oxoisothiazol-2(3H)-yl)benzoate] | 6 µM | > 100 | 3.1 µM |  | 
CCOC(=O)Cn1sccc1=O [ISFP23, ethyl 2-(3-oxoisothiazol-2(3H)-yl)acetate] |  |  |  | no inhibition | 
CCOC(=O)CCn1sccc1=O [ISFP24, ethyl 3-(3-oxoisothiazol-2(3H)-yl)propanoate] |  |  |  | no inhibition | 
CC(C)(C)OC(=O)c1ccc(-n2sccc2=O)cc1 [ISFP8, tert-butyl 4-(3-oxoisothiazol-2(3H)-yl)benzoate] | 6.7 µM | > 100 | 3.1 µM |  | 
O=C(c1ccc(-n2sccc2=O)cc1)N1CCOCC1 [ISFP18, 2-(4-(morpholine-4-carbonyl)phenyl)isothiazol-3(2H)-one] | 23 µM | > 100 | 19 µM |  | 
O=C(OCc1ccccc1)c1ccc(-n2sccc2=O)cc1 [ISFP10, benzyl 4-(3-oxoisothiazol-2(3H)-yl)benzoate] | 4 µM and 3.6 µM | > 100 | 2 µM |  | IC50 (HsPGM; enzyme preincubated with compound for 15 min (Fig. S11E, F), read-out: IC50 HsPGM after preincubation): 6 µM; Shift in IC50 against AfPGM over preincubation (AfPGM; 15-min preincubation (Fig. S11C, D)): no shift
CC(=O)OCc1cccc(-n2sccc2=O)c1 [ISFP19, 3-(3-oxoisothiazol-2(3H)-yl)benzyl acetate] | 115 µM | > 400 | 36 µM |  | 
O=c1ccsn1-c1cccc([N+](=O)[O-])c1 [ISFP12, 2-(3-nitrophenyl)isothiazol-3(2H)-one] | 9.5 µM | > 100 | 5.7 µM |  | 
O=c1ccsn1-c1ccccc1F [ISFP16, 2-(2-fluorophenyl)isothiazol-3(2H)-one] | 23 µM | > 400 | 21 µM |  | 
O=c1ccsn1CCc1ccccc1 [ISFP22, 2-phenethylisothiazol-3(2H)-one] |  |  |  | no inhibition | 
CCOC(=O)c1cc2cc(-n3sccc3=O)ccc2o1 [ISFP15, ethyl 5-(3-oxoisothiazol-2(3H)-yl)benzofuran-2-carboxylate] | 15 µM | > 100 | 2.3 µM |  | 
CCOCCn1sccc1=O [ISFP25, 2-(2-ethoxyethyl)isothiazol-3(2H)-one] |  |  |  | no inhibition | 
O=c1ccsn1-c1cc(Cl)cc(Cl)c1F [ISFP5, 2-(3,5-dichloro-2-fluorophenyl)isothiazol-3(2H)-one] | 8 µM and 7.8 µM | 10 ± 1 | 1 µM and 0.8 µM |  | 
O=c1ccsn1-c1c(F)cccc1F [ISFP20, 2-(2,6-difluorophenyl)isothiazol-3(2H)-one] | 14 µM | 86 | 19 µM |  | 
Cc1cc(=O)n(-c2cccc(Cl)c2)s1 [ISFP30, 2-(3-chlorophenyl)-5-methylisothiazol-3(2H)-one] |  |  | 5.2 µM |  | IC50 AfPGMC353 (AfPGMC353∗; AfPGMC353∗ (all other cysteines mutated to serine) 5 nM): no inhibition; IC50 HsPGM (HsPGM; HsPGM 5 nM, no preincubation, > values: highest concentration at which the compound can solubilize): no inhibition
O=c1ccsn1-c1cccc(Cl)c1 [ISFP13, 2-(3-chlorophenyl)isothiazol-3(2H)-one] | 12.2 µM | 100 | 5.8 µM |  | 
O=c1ccsn1-c1cccc(CO)c1 [ISFP21, 2-(3-(hydroxymethyl)phenyl)isothiazol-3(2H)-one] | 25 µM | > 400 | 23 µM |  | 
O=c1ccsn1Cc1ccccc1 [ISFP26, 2-benzylisothiazol-3(2H)-one] |  |  |  | no inhibition | 
